PubChem BioAssay AID720547 (The Scripps Research Institute Molecular Screening Center, 2013)
Active and inactive are the calls of the source.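 Rule for the calls: active = compound flagged as a likely artifact in this counterscreen, with IC50 of 10 µM or lower; inactive = IC50 above 10 µM.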

System: HEK293 Gal4-VP16 luciferase reporter counterscreen, luminescence
Test: Gal4-VP16 luciferase reporter inhibitors, dose response, counter-screen for COUP-TFII inhibitor project, cell-based, luminescence, HEK293 (AID 720547);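 note: potency for lowering the luciferase signal driven by Gal4-VP16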

Compound | IC50
O=C(CSc1nnc(Cn2nnc3ccccc32)o1)N(Cc1ccc(F)cc1)c1ccccc1 | > 85.4 µM (inactive)
COc1cc(N(C)C)ccc1C=c1c2ccccc2n2c1cc(-c1ccccc1)[n+]2C | 26.3 µM (inactive)
O=C1N(c2ccccc2)C[C@@H]2C[C@@H](c3cc4ccccc4o3)N3CCC[C@@]123 | > 85.4 µM (inactive)
C[n+]1c2n(c3ccccc31)N=C(c1ccccc1)CS2 | > 85.5 µM (inactive)
COCCn1c(C)c(C)c2c(NCCc3ccccc3)ncnc21 | > 85.3 µM (inactive)
NC(=O)c1nnn(Cc2cc(Cl)c(C(=O)c3ccc(Cl)cc3)c(Cl)c2)c1N | > 85.4 µM (inactive)
CC[C@H]1CN2CCc3cc(OC)c(OC)cc3C2C[C@@H]1C[C@H]1NCCc2cc(OC)c(OC)cc21 (stereo partly drawn) | > 85.4 µM (inactive)
Cc1cc(C)c(CN2CCN(C(=O)Cn3cnc4c(NCc5ccccc5)ncnc43)CC2)c(C)c1 | > 85.4 µM (inactive)
CC(C)(C)c1ccc(C2CC2C(=O)N/N=C\c2ccc[nH]2)cc1 (stereo not drawn) | > 85.4 µM (inactive)
N#CC(C#N)=C(Nc1ccc(F)cc1)SCc1cccc(Br)c1 | > 85.4 µM (inactive)
NC(=O)c1c(-c2ccc(Cl)cc2Cl)csc1NC(=O)Cc1ccccc1 | > 85.4 µM (inactive)
CCN(CC)S(=O)(=O)c1ccc(/C=C/C(=O)Nc2ccc(Br)cc2F)cc1 | > 85.4 µM (inactive)
COc1ccccc1-[n+]1c(C)cc(/C=C2\Sc3ccccc3N2C)cc1C | 27.8 µM (inactive)
O=C(NC1CCCCCCC1)c1cc(COc2ccc3ncccc3c2)on1 | > 85.4 µM (inactive)
CCCCCCn1ccc(=N)cc1 | > 85.4 µM (inactive)
CCOc1ccc(S(=O)(=O)NCc2ccncc2)cc1 | > 85.4 µM (inactive)
CCc1ccc(CN(C)C(=O)c2cc(COc3cccc4cnccc34)on2)cc1 | > 85.4 µM (inactive)
CC[C@@H](O)C[C@H]1CCC[C@@]2(C[C@@H]3OC(=O)/C=C/[C@@](C)(O)[C@@H](O)[C@H](C)[C@@H](O)[C@H](OC4CCC(N(C)C)C(C)O4)[C@@H](O)[C@](C)(O)CCCCC/C=C/[C@@H]4CC(C)(C)O[C@@]4(O)C[C@H](O2)[C@H]3C)O1 (stereo partly drawn) | 37 µM (inactive)
COc1cc(NC(=O)COc2cc(O)c3c(c2)OC(C)(C)CC3=O)cc(OC)c1OC | > 28.5 µM (inactive)
CC(=O)c1cccc(NS(=O)(=O)c2ccc(-c3cnc(C4CC4)o3)cc2)c1 | > 85.4 µM (inactive)
COc1ccc(NC(=O)C2Cc3c(-c4ccc5c(c4)OCO5)ccnc3O2)cc1OC (stereo not drawn) | > 85.4 µM (inactive)

Compound | IC50
CCC(C)NC(=O)CCC(=O)OC1O[C@H]2OC3(C)CC[C@H]4[C@H](C)CCC(C1C)C24OO3 (stereo partly drawn) | > 85.4 µM (inactive)
COc1ccc(CCNc2ncnc3c2oc2ccccc23)cc1OC | 56.8 µM (inactive)
Cc1cc(C)c(O)c(C(=O)CC2CC(=O)NC(=O)C2)c1 | > 85.4 µM (inactive)
O=C(CSc1nnnn1C1CC2CCC1C2)Nc1ccnc2ccccc12 (stereo not drawn) | > 85.4 µM (inactive)
Cc1cc(-n2c(C)cc(C(=O)CSc3ncnc4ccccc34)c2C)no1 | > 85.5 µM (inactive)
Cc1nn(C)c(C)c1CN(C)S(=O)(=O)c1ccc2ccccc2c1 | > 85.4 µM (inactive)
Cc1nc2c(-c3ccccc3)cnn2c(N)c1-c1ccccc1 | 59.7 µM (inactive)
CN(CC1CCCO1)S(=O)(=O)c1ccc(C(=O)Nc2nc3cc4c(cc3s2)OCO4)cc1 (stereo not drawn) | > 85.4 µM (inactive)
OC[C@@H]1CN(Cc2ccc(-c3ccccc3)cc2)C[C@H](n2cnc3c(NCc4ccc(F)cc4)ncnc32)O1 | 83.4 µM (inactive)
CCC(O)C1CCN(C(=O)c2cc(COc3ccc4ncccc4c3)on2)CC1 (stereo not drawn) | > 85.4 µM (inactive)
Cc1sc2ncnc(NCC3COc4ccccc4O3)c2c1C (stereo not drawn) | > 85.4 µM (inactive)
CC1Cc2cc(-c3csc(NC(=O)Cc4cccs4)n3)ccc2N1S(C)(=O)=O (stereo not drawn) | 30.5 µM (inactive)
CCN(CC)S(=O)(=O)c1cccc(NC(=O)CNc2cccc(S(=O)(=O)N3CCCC3)c2)c1 | > 85.4 µM (inactive)
CCc1cc(-c2nnn(CCC3COCCO3)c2CC)ccc1-c1cn(Cc2ccc3ccccc3c2)nn1 (stereo not drawn) | > 85.4 µM (inactive)
CC(Nc1ncnc2ccccc12)c1ccccc1 (stereo not drawn) | > 85.5 µM (inactive)
Cc1cc(NC2CCCC2)n2ncc(-c3ccccc3)c2n1 | 62.9 µM (inactive)
COc1ccc(-c2csc(NC(=O)C3CCN(c4ncnc5sc(C)c(C)c45)CC3)n2)cc1OC | 25.7 µM (inactive)
CC(C)(C)OC(=O)NCCCCCc1cn([C@@H](CO)C(=O)NCCCCCCCCCCC(=O)N2CCN(C(=O)OC(C)(C)C)CC2)nn1 | 13.3 µM (inactive)
O=C(CSc1cc(Cl)ccc1Cl)N/N=C/c1ccc[nH]1 | > 85.4 µM (inactive)
CCCc1ccc(C(=O)O/N=C(\N)c2ccccn2)cc1 | 36.7 µM (inactive)
COc1ccc(OC)c(CCNC(=O)Cn2nc(C)c3c(C)n(-c4ccc(C)cc4)nc3c2=O)c1 | > 28.5 µM (inactive)

Compound | IC50
CC1C(OC(=O)CCC(=O)NC(C)(C)CO)O[C@H]2OC3(C)CC[C@H]4[C@H](C)CCC1C24OO3 (stereo partly drawn) | > 85.4 µM (inactive)
CCCCOC(=O)c1[nH]c2c(c1C)C(=O)CC(c1cc(OC)c(OC)c(OC)c1)C2 (stereo not drawn) | > 85.4 µM (inactive)
O=C(NC(Nc1nc2ccc([N+](=O)[O-])cc2s1)(C(F)(F)F)C(F)(F)F)c1cccnc1 | > 85.4 µM (inactive)
O=C(c1cc(COc2cccc3cnccc23)on1)N1CCCC(CCCO)C1 (stereo not drawn) | > 85.4 µM (inactive)
N=c1c2c(n(Cc3ccc(Cl)cc3)c3c1CCC3)CCC2 | 89 µM (inactive)
CCOC(=O)N1CCN(C(=O)CSCC(=O)Nc2nc(-c3ccc(-c4ccccc4)cc3)cs2)CC1 | > 28.4 µM (inactive)
COc1ccc(CCNC(=O)C(C)n2nc(C)c3c(C)n(-c4ccc(C)cc4)nc3c2=O)c(OC)c1 (stereo not drawn) | > 28.5 µM (inactive)
Cc1nn(C)c(C)c1/C=C/C(=O)c1ccc(Cl)cc1Cl | > 85.4 µM (inactive)
Oc1ccc(-[n+]2c(-c3ccccc3)cc(-c3ccccc3)cc2-c2ccccc2)cc1 | 12.6 µM (inactive)
Clc1ccc(-n2ncc3c(NCCN4CCOCC4)ncnc32)cc1 | > 85.4 µM (inactive)
Cc1nnsc1NC(=O)OCc1ccc(C(C)(C)C)cc1 | > 85.4 µM (inactive)
O=C(NCC(c1ccco1)N1CCCC1)c1ccc(Cl)c(S(=O)(=O)N2CCc3ccccc32)c1 (stereo not drawn) | > 28.5 µM (inactive)
COc1ccc2c(c1)[nH]c1c(N3CCN(Cc4ccc5c(c4)OCO5)CC3)ncnc12 | 39.6 µM (inactive)
C[n+]1c2n(c3ccccc31)N=C(c1ccc(-c3ccccc3)cc1)CS2 | > 28.5 µM (inactive)
CC(=O)c1c(C)[nH]c(C(=O)OCCCCN2C(=O)c3ccccc3C2=O)c1C | 63.7 µM (inactive)
Nc1nc2ccccc2cc1C(=O)NCc1ccc(-c2ccccc2)cc1 | > 85.3 µM (inactive)
COc1ccc(CNC(=O)c2cccc3c(-c4cccnc4)coc23)cc1OC | 43.4 µM (inactive)
CCSc1nc2ccccc2n1C(=O)/C=C/c1ccc(OC)c(OC)c1 | 19.4 µM (inactive)
CC(C)(C)c1ccc(CSc2cnn(C(C)(C)C)c(=O)c2Cl)cc1 | > 85.4 µM (inactive)
Oc1ccc(Oc2ccc3c(C(F)(F)F)cc(C(F)(F)F)nc3n2)cc1 | 37 µM (inactive)
CC(C)(C)c1ccc(-c2cc(-c3ccccc3O)[nH]n2)cc1 | 36.6 µM (inactive)
